Test results from US20150105252A1, “SUBSTITUTED PYRAZOLES AS HERBICIDES” (E I DU PONT DE NEMOURS AND COMPANY, priority 2013, published 2015).

How the values were obtained:
[1] = system: barnyardgrass; test: Test A postemergence; assay type: in vivo, Echinochloa crus-galli
Procedure, shortened: (§1)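 Both timings tested concurrently in loam/sand soil: preemergence by directed soil spray, postemergence on plants of 2–10 cm at the one- to two-leaf stage. Greenhouse holding period was approximately 10 days before visual injury assessment (0–100, 0 = no effect).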

[2] = system: pigweed; test: Test A preemergence; assay type: in vivo, Amaranthus retroflexus; conditions: preemergence; for Pigweed plant response rating (0 to 100 scale): visual injury approx. 10 days after treatment
Procedure, shortened: as §1

[3] = system: velvetleaf; test: Test A preemergence; assay type: in vivo, Abutilon theophrasti; conditions: preemergence; for Velvetleaf plant response rating (0 to 100 scale): visual injury approx. 10 days after treatment
Procedure, shortened: as §1

[4] = system: ducksalad; test: Test B flood; assay type: in vivo, Heteranthera limosa; conditions: 250 g ai/ha, visual rating on 0 to 100 scale (0 no effect, 100 complete control), 13 to 15 days
Procedure, shortened: (§2)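 Paddy-water application: seedlings at 2-leaf stage, flood depth 3 cm maintained for the test duration. Evaluation after 13–15 days in the greenhouse by eye relative to controls; 0–100 scale.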

[5] = system: foxtail, giant; test: Test A preemergence; assay type: in vivo, Setaria faberii; conditions: preemergence; for Foxtail, Giant plant response rating (0 to 100 scale): visual injury approx. 10 days after treatment
Procedure, shortened: as §1

[6] = system: barnyardgrass; test: Test B flood; assay type: in vivo, Echinochloa crus-galli; conditions: 250 g ai/ha, visual rating on 0 to 100 scale (0 no effect, 100 complete control), 13 to 15 days
Procedure, shortened: as §2

[7] = system: velvetleaf; test: Test A postemergence; assay type: in vivo, Abutilon theophrasti
Procedure, shortened: as §1

[8] = system: crabgrass, large; test: Test A postemergence; assay type: in vivo, Digitaria sanguinalis
Procedure, shortened: as §1

[9] = system: crabgrass, large; test: Test A preemergence; assay type: in vivo, Digitaria sanguinalis; conditions: preemergence; for Crabgrass, Large plant response rating (0 to 100 scale): visual injury approx. 10 days after treatment
Procedure, shortened: as §1

[10] = system: morningglory; test: Test A postemergence; assay type: in vivo, Ipomoea spp.
Procedure, shortened: as §1

[11] = system: morningglory; test: Test A preemergence; assay type: in vivo, Ipomoea spp.; conditions: preemergence; for Morningglory plant response rating (0 to 100 scale): visual injury approx. 10 days after treatment
Procedure, shortened: as §1

[12] = system: wheat; test: Test A postemergence; assay type: in vivo, Triticum aestivum
Procedure, shortened: as §1

[13] = system: rice; test: Test B flood; assay type: in vivo, Oryza sativa; conditions: 250 g ai/ha, visual rating on 0 to 100 scale (0 no effect, 100 complete control), 13 to 15 days
Procedure, shortened: as §2

[14] = system: corn; test: Test A postemergence; assay type: in vivo, Zea mays
Procedure, shortened: as §1

[15] = system: foxtail, giant; test: Test A postemergence; assay type: in vivo, Setaria faberii
Procedure, shortened: as §1

[16] = system: pigweed; test: Test A postemergence; assay type: in vivo, Amaranthus retroflexus
Procedure, shortened: as §1

[17] = system: barnyardgrass; test: Test A preemergence; assay type: in vivo, Echinochloa crus-galli; conditions: preemergence; for Barnyardgrass plant response rating (0 to 100 scale, 0 is no effect, 100 is complete control): visual injury approx. 10 days after treatment
Procedure, shortened: as §1

[18] = system: corn; test: Test A preemergence; assay type: in vivo, Zea mays; conditions: preemergence; for Corn plant response rating (0 to 100 scale): visual injury approx. 10 days after treatment
Procedure, shortened: as §1

[19] = system: sedge, umbrella; test: Test B flood; assay type: in vivo, Cyperus difformis; conditions: 250 g ai/ha, visual rating on 0 to 100 scale (0 no effect, 100 complete control), 13 to 15 days
Procedure, shortened: as §2

[20] = system: wheat; test: Test A preemergence; assay type: in vivo, Triticum aestivum; conditions: preemergence; for Wheat plant response rating (0 to 100 scale): visual injury approx. 10 days after treatment
Procedure, shortened: as §1

[21] = Postemergence, 125 g ai/ha, 0 to 100 scale, 0 no effect, 100 complete control
[22] = Postemergence, 500 g ai/ha, 0 to 100 scale (0 no effect, 100 complete control)
[23] = 500 g ai/ha, visual injury after approx. 10 days, 0 to 100 scale (0 no effect, 100 complete control)
[24] = Postemergence, 500 g ai/ha, visual rating after approx. 10 days, 0 to 100 scale (0 no effect, 100 complete control)
[25] = 125 g ai/ha, visual injury, 0 to 100 scale, approx. 10 days
[26] = postemergence, 125 g ai/ha, about 10 days, visual rating on 0 to 100 scale (0 no effect, 100 complete control)

## CCCNC(=O)c1cc(CC)n(Oc2cccc(C(F)(F)F)c2)n1 [Compound 216]
[1]; [21]
  Barnyardgrass plant response rating: 0
[1]; [22]
  Barnyardgrass plant response rating: 70
[2]; 125 g ai/ha
  Pigweed plant response rating (0 to 100 scale): 0
[3]; 125 g ai/ha
  Velvetleaf plant response rating (0 to 100 scale): 0
[4]
  Plant response rating, Ducksalad: 20
[5]; 125 g ai/ha
  Foxtail, Giant plant response rating (0 to 100 scale): 10
[5]; [23]
  Foxtail, Giant plant response rating: 40
[6]
  Plant response rating, Barnyardgrass: 0
[7]; [21]
  Velvetleaf plant response rating: 0
[7]; [22]
  Velvetleaf plant response rating: 40
[8]; [21]
  Crabgrass, Large plant response rating: 20
[8]; [22]
  Crabgrass, Large plant response rating: 70
[9]; 125 g ai/ha
  Crabgrass, Large plant response rating (0 to 100 scale): 60
[9]; [23]
  Crabgrass, Large plant response rating: 90
[10]; [21]
  Morningglory plant response rating: 20
[10]; [22]
  Morningglory plant response rating: 70
[11]; 125 g ai/ha
  Morningglory plant response rating (0 to 100 scale): 0
[12]; [21]
  Wheat plant response rating: 0
[12]; [22]
  Wheat plant response rating: 0
[13]
  Plant response rating, Rice: 0
[14]; [21]
  Corn plant response rating: 0
[14]; [22]
  Corn plant response rating: 50
[15]; [21]
  Foxtail, Giant plant response rating: 0
[15]; [22]
  Foxtail, Giant plant response rating: 40
[16]; [21]
  Pigweed plant response rating: 20
[16]; [22]
  Pigweed plant response rating: 30
[17]; 125 g ai/ha
  Barnyardgrass plant response rating (0 to 100 scale, 0 is no effect, 100 is complete control): 0
[17]; [23]
  Barnyardgrass plant response rating: 80
[18]; 125 g ai/ha
  Corn plant response rating (0 to 100 scale): 0
[18]; [23]
  Corn plant response rating: 10
[19]
  Plant response rating, Sedge, Umbrella: 30
[20]; 125 g ai/ha
  Wheat plant response rating (0 to 100 scale): 0

## CCCNC(=O)c1cc(CC)n(Cc2cccc(C(F)(F)F)n2)n1 [Compound 88]
[1]; [21]
  Barnyardgrass plant response rating: 0
[1]; [24]
  Barnyardgrass plant response rating: 0
[2]; [25]
  Pigweed plant response rating: 0
[2]; [23]
  Pigweed plant response rating: 0
[3]; [25]
  Velvetleaf plant response rating: 0
[3]; [23]
  Velvetleaf plant response rating: 0
[4]
  Plant response rating, Ducksalad: 0
[5]; [25]
  Foxtail, Giant plant response rating: 0
[5]; [23]
  Foxtail, Giant plant response rating: 0
[6]
  Plant response rating, Barnyardgrass: 0
[7]; [24]
  Velvetleaf plant response rating: 10
[7]; [26]
  Velvetleaf plant response rating: 0
[8]; [24]
  Crabgrass, Large plant response rating: 10
[8]; [26]
  Crabgrass, Large plant response rating: 0
[9]; [25]
  Crabgrass, Large plant response rating: 0
[9]; [23]
  Crabgrass, Large plant response rating: 30
[10]; [24]
  Morningglory plant response rating: 10
[10]; [26]
  Morningglory plant response rating: 10
[11]; [25]
  Morningglory plant response rating: 0
[11]; [23]
  Morningglory plant response rating: 10
[12]; [24]
  Wheat plant response rating: 0
[12]; [26]
  Wheat plant response rating: 0
[13]
  Plant response rating, Rice: 0
[14]; [24]
  Corn plant response rating: 10
[14]; [26]
  Corn plant response rating: 0
[15]; [24]
  Foxtail, Giant plant response rating: 0
[15]; [26]
  Foxtail, Giant plant response rating: 0
[16]; [24]
  Pigweed plant response rating: 10
[16]; [26]
  Pigweed plant response rating: 0
[17]; [25]
  Barnyardgrass plant response rating: 0
[17]; [23]
  Barnyardgrass plant response rating: 0
[18]; [25]
  Corn plant response rating: 0
[18]; [23]
  Corn plant response rating: 0
[19]
  Plant response rating, Sedge, Umbrella: 0
[20]; [25]
  Wheat plant response rating: 0
[20]; [23]
  Wheat plant response rating: 0

## CCCNC(=O)c1cc(CC)n(Cc2cc(C(F)(F)F)nn2CC)n1 [Compound 117]
[1]; [24]
  Barnyardgrass plant response rating: 80
[1]; [26]
  Barnyardgrass plant response rating: 40
[2]; [25]
  Pigweed plant response rating: 90
[2]; [23]
  Pigweed plant response rating: 100
[3]; [25]
  Velvetleaf plant response rating: 0
[3]; [23]
  Velvetleaf plant response rating: 0
[4]
  Plant response rating, Ducksalad: 50
[5]; [25]
  Foxtail, Giant plant response rating: 70
[5]; [23]
  Foxtail, Giant plant response rating: 100
[6]
  Plant response rating, Barnyardgrass: 0
[7]; [24]
  Velvetleaf plant response rating: 80
[7]; [26]
  Velvetleaf plant response rating: 40
[8]; [24]
  Crabgrass, Large plant response rating: 80
[8]; [26]
  Crabgrass, Large plant response rating: 20
[9]; [25]
  Crabgrass, Large plant response rating: 90
[9]; [23]
  Crabgrass, Large plant response rating: 100
[10]; [24]
  Morningglory plant response rating: 90
[10]; [26]
  Morningglory plant response rating: 60
[11]; [25]
  Morningglory plant response rating: 30
[11]; [23]
  Morningglory plant response rating: 100
[12]; [24]
  Wheat plant response rating: 0
[12]; [26]
  Wheat plant response rating: 0
[13]
  Plant response rating, Rice: 20
[14]; [24]
  Corn plant response rating: 50
[14]; [26]
  Corn plant response rating: 20
[15]; [24]
  Foxtail, Giant plant response rating: 90
[15]; [26]
  Foxtail, Giant plant response rating: 20
[16]; [24]
  Pigweed plant response rating: 80
[16]; [26]
  Pigweed plant response rating: 50
[17]; [25]
  Barnyardgrass plant response rating: 30
[17]; [23]
  Barnyardgrass plant response rating: 80
[18]; [25]
  Corn plant response rating: 0
[18]; [23]
  Corn plant response rating: 10
[19]
  Plant response rating, Sedge, Umbrella: 75
[20]; [25]
  Wheat plant response rating: 0
[20]; [23]
  Wheat plant response rating: 0

## CCCCNC(=O)c1cc(I)n(Cc2cccc(C(F)(F)F)c2)n1 [Compound 182]
[1]; [22]
  Barnyardgrass plant response rating: 30
[1]; [26]
  Barnyardgrass plant response rating: 20
[2]; 125 g ai/ha
  Pigweed plant response rating (0 to 100 scale): 0
[2]; [23]
  Pigweed plant response rating: 30
[3]; 125 g ai/ha
  Velvetleaf plant response rating (0 to 100 scale): 0
[3]; [23]
  Velvetleaf plant response rating: 0
[4]
  Plant response rating, Ducksalad: 0
[5]; 125 g ai/ha
  Foxtail, Giant plant response rating (0 to 100 scale): 0
[5]; [23]
  Foxtail, Giant plant response rating: 50
[6]
  Plant response rating, Barnyardgrass: 0
[7]; [22]
  Velvetleaf plant response rating: 70
[8]; [22]
  Crabgrass, Large plant response rating: 30
[8]; [26]
  Crabgrass, Large plant response rating: 10
[9]; 125 g ai/ha
  Crabgrass, Large plant response rating (0 to 100 scale): 0
[9]; [23]
  Crabgrass, Large plant response rating: 60
[10]; [22]
  Morningglory plant response rating: 30
[11]; 125 g ai/ha
  Morningglory plant response rating (0 to 100 scale): 0
[11]; [23]
  Morningglory plant response rating: 0
[12]; [22]
  Wheat plant response rating: 0
[13]
  Plant response rating, Rice: 0
[14]; [22]
  Corn plant response rating: 20
[14]; [26]
  Corn plant response rating: 0
[15]; [22]
  Foxtail, Giant plant response rating: 20
[15]; [26]
  Foxtail, Giant plant response rating: 0
[16]; [22]
  Pigweed plant response rating: 90
[17]; 125 g ai/ha
  Barnyardgrass plant response rating (0 to 100 scale, 0 is no effect, 100 is complete control): 0
[17]; [23]
  Barnyardgrass plant response rating: 0
[18]; 125 g ai/ha
  Corn plant response rating (0 to 100 scale): 0
[18]; [23]
  Corn plant response rating: 0
[19]
  Plant response rating, Sedge, Umbrella: 0
[20]; 125 g ai/ha
  Wheat plant response rating (0 to 100 scale): 0
[20]; [23]
  Wheat plant response rating: 0
